According to BindingDB's records for doi:10.1124/jpet.104.081539 (Kyowa Hakko Kogyo, 2005):

Columns and labels:
[1] = biological target: Histamine H2 receptor (Homo sapiens, UniProt P25021)
[2] = biological target: T1, Alpha-1A adrenergic receptor (Rattus norvegicus, UniProt P43140)
T1 sequence (P43140 whole entry): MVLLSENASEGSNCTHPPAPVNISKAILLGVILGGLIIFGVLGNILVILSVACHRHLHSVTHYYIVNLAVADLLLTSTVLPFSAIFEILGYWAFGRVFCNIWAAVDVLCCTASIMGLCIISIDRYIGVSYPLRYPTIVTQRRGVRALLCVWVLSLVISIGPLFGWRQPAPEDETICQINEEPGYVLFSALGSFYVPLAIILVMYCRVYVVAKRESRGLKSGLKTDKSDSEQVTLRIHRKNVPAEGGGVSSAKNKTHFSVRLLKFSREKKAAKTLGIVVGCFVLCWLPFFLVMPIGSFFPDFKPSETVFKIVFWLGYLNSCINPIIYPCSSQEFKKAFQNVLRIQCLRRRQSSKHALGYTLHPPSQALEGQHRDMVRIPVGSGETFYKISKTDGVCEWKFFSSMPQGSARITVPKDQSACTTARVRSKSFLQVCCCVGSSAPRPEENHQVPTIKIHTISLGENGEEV

[3] = biological target: T2, Cysteinyl leukotriene receptor 1 (Homo sapiens, UniProt Q9Y271)
T2 sequence (Q9Y271 whole entry): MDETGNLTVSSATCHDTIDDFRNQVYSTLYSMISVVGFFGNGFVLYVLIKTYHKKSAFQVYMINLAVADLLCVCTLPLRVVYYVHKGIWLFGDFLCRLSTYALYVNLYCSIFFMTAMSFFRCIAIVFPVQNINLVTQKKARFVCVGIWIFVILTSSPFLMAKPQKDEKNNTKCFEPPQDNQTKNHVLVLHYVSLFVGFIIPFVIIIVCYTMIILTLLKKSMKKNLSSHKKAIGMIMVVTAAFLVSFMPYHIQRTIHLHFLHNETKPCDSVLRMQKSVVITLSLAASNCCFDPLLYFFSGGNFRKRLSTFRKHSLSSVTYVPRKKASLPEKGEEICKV

[4] = biological target: T3, Prostaglandin D2 receptor (Homo sapiens, UniProt Q13258)
T3 sequence (Q13258 whole entry): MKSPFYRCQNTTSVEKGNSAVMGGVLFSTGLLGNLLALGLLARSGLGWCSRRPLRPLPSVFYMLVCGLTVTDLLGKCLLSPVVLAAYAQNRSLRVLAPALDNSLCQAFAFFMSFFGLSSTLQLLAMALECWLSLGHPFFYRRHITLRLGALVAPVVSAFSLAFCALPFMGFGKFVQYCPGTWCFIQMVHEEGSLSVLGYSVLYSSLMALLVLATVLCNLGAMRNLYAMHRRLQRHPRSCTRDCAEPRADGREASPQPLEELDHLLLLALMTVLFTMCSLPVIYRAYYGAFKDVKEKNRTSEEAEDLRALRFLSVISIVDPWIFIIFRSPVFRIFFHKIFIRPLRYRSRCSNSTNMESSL

[5] = biological target: Histamine H1 receptor (Homo sapiens, UniProt P35367)
[6] = biological target: Prostaglandin G/H synthase 1 (Homo sapiens, UniProt P23219)
[7] = biological target: T4, Prostaglandin G/H synthase 2 (Homo sapiens, UniProt P35354)
T4 sequence (P35354 whole entry): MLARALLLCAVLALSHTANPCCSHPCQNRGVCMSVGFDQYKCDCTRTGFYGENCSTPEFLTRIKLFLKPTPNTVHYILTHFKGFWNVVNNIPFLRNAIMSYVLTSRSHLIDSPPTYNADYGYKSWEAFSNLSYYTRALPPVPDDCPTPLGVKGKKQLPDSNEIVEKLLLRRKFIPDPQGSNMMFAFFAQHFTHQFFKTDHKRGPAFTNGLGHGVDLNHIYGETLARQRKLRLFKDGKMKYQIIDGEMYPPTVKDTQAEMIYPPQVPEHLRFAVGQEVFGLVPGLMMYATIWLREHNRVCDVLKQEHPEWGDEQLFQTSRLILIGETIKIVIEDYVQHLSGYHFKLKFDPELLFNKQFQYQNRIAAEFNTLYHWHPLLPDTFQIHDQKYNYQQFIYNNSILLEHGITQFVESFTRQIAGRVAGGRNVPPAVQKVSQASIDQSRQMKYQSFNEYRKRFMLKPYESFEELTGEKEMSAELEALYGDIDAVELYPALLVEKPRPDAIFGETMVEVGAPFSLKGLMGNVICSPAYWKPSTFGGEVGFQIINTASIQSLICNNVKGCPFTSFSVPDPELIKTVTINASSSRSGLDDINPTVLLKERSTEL

[8] = biological target: D(1A) dopamine receptor (Homo sapiens, UniProt P21728)
[9] = biological target: T5, 5-hydroxytryptamine receptor 1A (Homo sapiens, UniProt P08908)
T5 sequence (P08908 whole entry): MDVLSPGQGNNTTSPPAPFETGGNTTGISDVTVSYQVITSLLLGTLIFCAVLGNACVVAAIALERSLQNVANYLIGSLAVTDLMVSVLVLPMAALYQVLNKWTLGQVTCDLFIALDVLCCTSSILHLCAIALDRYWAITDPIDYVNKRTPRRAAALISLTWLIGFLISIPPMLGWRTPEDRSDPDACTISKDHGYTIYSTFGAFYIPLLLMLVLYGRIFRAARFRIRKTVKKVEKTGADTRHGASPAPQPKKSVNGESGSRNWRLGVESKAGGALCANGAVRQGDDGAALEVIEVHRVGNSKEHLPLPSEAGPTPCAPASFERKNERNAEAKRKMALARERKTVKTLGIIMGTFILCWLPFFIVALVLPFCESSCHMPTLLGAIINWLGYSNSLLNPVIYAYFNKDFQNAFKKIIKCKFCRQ

Measured: Ki

Prostaglandin G/H synthase 1, sequence (P23219 whole entry): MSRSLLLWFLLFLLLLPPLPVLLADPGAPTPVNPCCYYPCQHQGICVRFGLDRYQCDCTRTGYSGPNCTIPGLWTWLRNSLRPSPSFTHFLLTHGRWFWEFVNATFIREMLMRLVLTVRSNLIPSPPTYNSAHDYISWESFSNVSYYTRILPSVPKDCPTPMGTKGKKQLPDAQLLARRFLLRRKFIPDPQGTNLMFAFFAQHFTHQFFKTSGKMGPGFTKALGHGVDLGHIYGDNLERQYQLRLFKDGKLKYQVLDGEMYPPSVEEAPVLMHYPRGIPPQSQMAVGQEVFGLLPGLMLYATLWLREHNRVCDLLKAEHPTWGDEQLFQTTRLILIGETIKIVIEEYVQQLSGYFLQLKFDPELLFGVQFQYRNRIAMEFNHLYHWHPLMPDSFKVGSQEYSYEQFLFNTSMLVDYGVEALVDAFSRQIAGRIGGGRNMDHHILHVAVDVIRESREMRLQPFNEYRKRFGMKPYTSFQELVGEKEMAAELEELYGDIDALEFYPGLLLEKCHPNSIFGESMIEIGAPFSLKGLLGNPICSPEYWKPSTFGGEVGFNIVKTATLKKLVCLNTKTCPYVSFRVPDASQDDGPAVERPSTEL
Histamine H2 receptor, sequence (P25021 whole entry): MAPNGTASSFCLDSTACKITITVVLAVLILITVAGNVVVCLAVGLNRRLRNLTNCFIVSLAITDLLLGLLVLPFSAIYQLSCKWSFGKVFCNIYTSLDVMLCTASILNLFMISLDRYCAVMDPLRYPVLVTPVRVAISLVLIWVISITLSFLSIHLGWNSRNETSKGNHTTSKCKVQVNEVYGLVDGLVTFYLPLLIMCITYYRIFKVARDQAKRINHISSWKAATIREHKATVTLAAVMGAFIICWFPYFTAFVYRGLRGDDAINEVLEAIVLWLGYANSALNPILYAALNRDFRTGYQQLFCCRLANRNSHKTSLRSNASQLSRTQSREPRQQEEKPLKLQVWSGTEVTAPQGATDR
D(1A) dopamine receptor, sequence (P21728 whole entry): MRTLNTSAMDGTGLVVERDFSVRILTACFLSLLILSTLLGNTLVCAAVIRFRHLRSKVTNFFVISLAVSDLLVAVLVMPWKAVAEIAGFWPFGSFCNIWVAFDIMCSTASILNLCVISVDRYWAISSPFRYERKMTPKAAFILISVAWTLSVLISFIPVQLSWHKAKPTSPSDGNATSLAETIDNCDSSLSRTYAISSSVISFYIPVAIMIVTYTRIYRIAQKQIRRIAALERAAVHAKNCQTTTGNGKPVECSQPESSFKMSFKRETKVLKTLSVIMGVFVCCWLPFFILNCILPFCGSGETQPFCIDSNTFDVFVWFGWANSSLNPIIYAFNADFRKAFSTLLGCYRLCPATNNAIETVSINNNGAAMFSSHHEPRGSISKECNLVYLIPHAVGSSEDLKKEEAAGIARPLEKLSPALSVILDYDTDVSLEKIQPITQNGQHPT
Histamine H1 receptor, sequence (P35367 whole entry): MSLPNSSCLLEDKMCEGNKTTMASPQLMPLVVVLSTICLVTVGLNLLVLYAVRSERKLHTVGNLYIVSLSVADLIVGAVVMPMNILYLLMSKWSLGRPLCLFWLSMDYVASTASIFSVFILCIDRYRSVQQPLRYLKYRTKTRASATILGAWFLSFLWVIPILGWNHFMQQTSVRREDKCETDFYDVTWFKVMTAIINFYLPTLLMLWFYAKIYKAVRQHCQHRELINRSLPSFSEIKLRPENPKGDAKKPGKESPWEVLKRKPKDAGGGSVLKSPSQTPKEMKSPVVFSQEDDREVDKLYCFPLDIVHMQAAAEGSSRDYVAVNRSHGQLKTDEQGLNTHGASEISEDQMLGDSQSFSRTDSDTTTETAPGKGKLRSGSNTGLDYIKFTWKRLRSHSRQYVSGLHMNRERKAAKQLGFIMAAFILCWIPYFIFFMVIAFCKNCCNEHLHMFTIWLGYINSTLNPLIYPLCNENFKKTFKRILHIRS

CC(C)C(=O)N(c1ccccc1)C1CC(C)N(C(=O)c2ccccc2)c2ccccc21 (stereo unspecified) [K117]
not listed: [9]
> 1 µM: all other assays above

CCC(=O)N1c2ccccc2C(N(C(C)=O)c2ccccc2)CC1C (stereo unspecified) [K376]
> 1 µM: all assays above

CC1CC(N(C(=O)C2CC2)c2ccccc2)c2ccccc2N1C(=O)c1ccccc1 (stereo unspecified) [K604]
> 1 µM: all assays above
